Assay [1] concerns the target T1, Glutamate receptor ionotropic, AMPA (Rattus norvegicus, UniProt P19490+P19491+P19492+P19493). The assay is described as follows: Displacement of [3H]AMPA from Ionotropic glutamate receptor AMPA. It is filed as protein-complex assay. In general terms: In a radioligand displacement assay an active substance lowers the binding of a labelled ligand.
The target of assay [2] is Glutamate receptor ionotropic, NMDA 1 (Rattus norvegicus, UniProt P35439). The assay is described as follows: Displacement of [3H]glycine from glycine site on the NMDA receptor.
Assay [3] has as its target T1, Glutamate receptor ionotropic, AMPA. The assay is described as follows: Compound was tested for its ability to displace [3H]-AMPA from AMPA receptor. The class given is protein-complex assay.
The target in another assay is Glutamate NMDA receptor. The assay is described as follows: Compound was tested for its ability to displace [3H]glycine from glycine site on the N-methyl-D-aspartate glutamate receptor. It is filed as protein-complex assay.

This is an account of results in ChEMBL document CHEMBL1125547, “Synthesis and excitatory amino acid pharmacology of a series of heterocyclic-fused quinoxalinones and quinazolinones” (J Med Chem, 1992).

The Ki is the equilibrium dissociation constant of an inhibitor or competing ligand from its target. Read a low Ki as a stronger hold on the target. Regarding `CCc1nnc2c(O)nc3cc(Cl)c(Cl)cc3n12`, the values for the inhibitory constant (Ki) in assay [1] and in assay [2] were 4.78 µM and 4.58 µM, respectively.

With `O=[N+]([O-])c1ccc2c(c1)nc(O)c1nnnn12`, the Ki in assay [1] and in assay [2] was > 10 µM each time.

In the case of `Oc1nc2cc(Cl)c(Cl)cc2n2nnnc12`, the Ki in assay [1] and in assay [2] was > 10 µM in each case.

Turning to `CCCCc1nnc2c(=O)[nH]c3cc(Cl)c(Cl)cc3n12`, the Ki in assay [1] was found to be 1.71 µM; in assay [2] it was 1.48 µM.

For `Oc1nc2cc(Cl)c(Cl)cc2n2cnnc12`, the values for the inhibition constant Ki in assay [1] and in assay [2] were 4.69 µM and 0.63 µM, respectively.

Regarding `O=c1[nH]c2cc(F)c(F)cc2n2cnnc12`, the inhibition constant Ki in assay [1] and in assay [2] was > 10 µM throughout.

Consider `Oc1nc2cc(Cl)c(Cl)cc2c2ccnn12`, for which the Ki in assay [1] and in assay [2] was > 10 µM in each case.

For `CCCc1nnc2c(O)nc3cc(Cl)c(Cl)cc3n12`, in assay [2], the Ki worked out at 3.92 µM.

Regarding `O=c1[nH]c2ccc([N+](=O)[O-])cc2n2nnnc12`, the Ki in assay [1] and in assay [2] was > 10 µM in each case.

On to `O=c1[nH]c2cc(Cl)ccc2c2ccnn12`, for which the Ki in assay [1] and in assay [2] was > 10 µM each time.

Consider `O=[N+]([O-])c1cc2nc(O)c3nncn3c2cc1[N+](=O)[O-]`, for which the inhibition constant (Ki) was determined as 5.49 µM in assay [3] and 5.12 µM at Glutamate NMDA receptor.

Consider `O=[N+]([O-])c1ccc2c(c1)nc(O)c1nncn12`, for which the inhibition constant (Ki) is 0.99 µM in assay [1] and 7.35 µM in assay [2].

On to `Cc1nnc2c(=O)[nH]c3cc(Cl)c(Cl)cc3n12`, for which the results for the inhibition constant Ki in assay [1] and in assay [2] were 4.45 µM and > 10 µM, respectively.

For `Oc1nc2cc(Cl)c(Cl)cc2n2c(-c3ccccc3)nnc12`, the inhibitory constant (Ki) in assay [1] and in assay [2] was > 10 µM throughout.

Regarding `Oc1nc2cc(Cl)cc(Cl)c2n2cnnc12`, the Ki turned out to be 3.24 µM in assay [1] and 2.85 µM in assay [2].

As for `Oc1nc2cc(Cl)c(Cl)cc2n2ccnc12`, the Ki in assay [1] came out at 7.38 µM; in assay [2], 1.26 µM.

`Oc1nc2cc(Cl)c(Cl)cc2n2c(C(F)(F)F)nnc12`: the Ki in assay [1] and in assay [2] was > 10 µM throughout.

`O=[N+]([O-])c1cc2nc(O)c3nnnn3c2cc1[N+](=O)[O-]`: the inhibition constant Ki (in assay [3]; on Glutamate NMDA receptor) was > 10 µM each time.

For `Oc1nc2cc(Cl)c(Cl)cc2nc1O` [2,3-DIHYDROXY-6,7-DICHLOROQUINOXALINE], the inhibitory constant (Ki) turned out to be 1.64 µM in assay [1] and 0.21 µM in assay [2].

In turn, `O=c1[nH]c2cc([N+](=O)[O-])c([N+](=O)[O-])cc2[nH]c1=O` [DNQX] had a Ki at Glutamate NMDA receptor of 0.39 µM.
